Experimental data: patent publication US10941399B2, “Methods and compositions for gene-specific demethylation by DNA methyltransferase (DNMT)-RNA interaction” (Beth Israel Deaconess Medical Center, Inc., priority 2011, dated 2021)

Biological target: DNMT1 (Homo sapiens, UniProt P26358)
Test: Nuclear RNA immunoprecipitation (RIP) with anti-DNMT1 antibody
Format: binding
Parameters: endogenous in cells; host or cells: HL-60 cells (nuclei); Similar results were obtained in U937 cells
Details: HL-60 cells
Description: Nuclear RNA immunoprecipitation (nRIP): nRIP performed as described by Ebralidze et al. (Science 303:383-387, 2004) with some modifications. Crosslinked nuclei were collected as follows: About 60×10^6 HL-60 cells were crosslinked with 1% formaldehyde (formaldehyde solution, freshly made 50 mM HEPES-KOH; 100 mM NaCl; 1 mM EDTA; 0.5 mM EGTA; 11% formaldehyde) for 10 minutes at room temperature. Crosslinking was halted by adding 1/10th volume of 2.66 M Glycine, kept for 5 minutes at room temperature and 10 minutes on ice. Cell pellets were washed twice with ice-cold PBS (freshly supplemented with 1 mM PMSF) and then resuspended in cell lysis buffer (volume=4 mL, 1× Buffer of 10 mM Tris pH 7.4; 10 mM NaCl; 0.5% NP-40, freshly supplemented with protease inhibitors (protease inhibitors cocktail: Roche Applied Science, Cat. No. 1836153, 1 tablet with 375 μL H2O; add as ×100), 1 mM PMSF, and 2 mM vanadyl complex (NEB)). Cells were incubated at 0° C. for 10-15 minutes and homogenized by Dounce (10 strokes pestle A and 40 strokes pestle B). Nuclei were recovered by centrifugation at 2,000 rpm for 10 minutes at 4° C. Nuclei were resuspended in 3 ml 1× Resuspension Buffer (50 mM HEPES-NaOH, pH 7.4; 10 mM MgCl2) supplemented with 1 mM PMSF and 2 mM vanadyl complex. […]

DNMT1, sequence (P26358 whole entry): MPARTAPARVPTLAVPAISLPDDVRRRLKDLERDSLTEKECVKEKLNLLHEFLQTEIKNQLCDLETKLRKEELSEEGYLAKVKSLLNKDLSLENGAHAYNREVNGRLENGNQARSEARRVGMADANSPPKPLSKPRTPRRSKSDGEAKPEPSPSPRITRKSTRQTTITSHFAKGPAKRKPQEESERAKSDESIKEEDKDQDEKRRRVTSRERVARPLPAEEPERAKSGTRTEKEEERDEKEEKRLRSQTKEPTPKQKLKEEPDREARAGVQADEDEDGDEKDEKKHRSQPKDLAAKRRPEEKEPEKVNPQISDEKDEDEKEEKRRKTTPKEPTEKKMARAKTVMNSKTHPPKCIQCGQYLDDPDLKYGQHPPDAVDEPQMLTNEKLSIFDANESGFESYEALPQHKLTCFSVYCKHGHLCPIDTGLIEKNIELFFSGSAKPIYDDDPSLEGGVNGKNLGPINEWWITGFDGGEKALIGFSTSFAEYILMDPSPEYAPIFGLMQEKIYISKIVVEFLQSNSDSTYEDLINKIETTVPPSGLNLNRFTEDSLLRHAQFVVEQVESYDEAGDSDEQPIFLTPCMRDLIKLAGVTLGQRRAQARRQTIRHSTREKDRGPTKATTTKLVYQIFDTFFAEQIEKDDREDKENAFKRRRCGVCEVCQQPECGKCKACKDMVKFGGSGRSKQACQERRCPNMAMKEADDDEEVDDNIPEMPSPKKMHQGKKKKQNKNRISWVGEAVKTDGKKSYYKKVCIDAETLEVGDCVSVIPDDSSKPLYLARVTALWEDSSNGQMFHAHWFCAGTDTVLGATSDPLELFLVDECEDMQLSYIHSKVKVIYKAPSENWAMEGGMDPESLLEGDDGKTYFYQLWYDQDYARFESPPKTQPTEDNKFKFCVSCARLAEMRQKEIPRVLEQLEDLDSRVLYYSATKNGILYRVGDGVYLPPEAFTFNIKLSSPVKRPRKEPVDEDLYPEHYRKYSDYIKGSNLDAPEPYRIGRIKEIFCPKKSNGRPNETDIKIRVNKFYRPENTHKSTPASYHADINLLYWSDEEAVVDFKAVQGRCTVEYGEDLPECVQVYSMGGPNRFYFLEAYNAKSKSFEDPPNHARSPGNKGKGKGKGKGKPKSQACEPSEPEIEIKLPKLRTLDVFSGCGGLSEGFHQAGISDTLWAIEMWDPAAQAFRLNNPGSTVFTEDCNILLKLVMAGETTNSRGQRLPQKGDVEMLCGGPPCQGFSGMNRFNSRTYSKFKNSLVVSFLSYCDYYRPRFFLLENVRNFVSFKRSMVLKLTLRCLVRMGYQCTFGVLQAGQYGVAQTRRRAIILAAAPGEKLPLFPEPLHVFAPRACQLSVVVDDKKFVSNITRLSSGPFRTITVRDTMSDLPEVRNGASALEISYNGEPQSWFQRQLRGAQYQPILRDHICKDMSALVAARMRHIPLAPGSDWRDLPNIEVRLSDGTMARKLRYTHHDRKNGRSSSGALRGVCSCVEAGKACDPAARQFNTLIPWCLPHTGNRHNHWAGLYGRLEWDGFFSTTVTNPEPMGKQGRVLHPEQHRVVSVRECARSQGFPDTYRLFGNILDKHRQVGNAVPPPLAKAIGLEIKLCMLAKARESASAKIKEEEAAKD

With “ecRNA: endogenous ~5 kb non-polyadenylated nuclear extra-coding transcript of the C/EBPa locus (SEQ ID NO:8)” the “enrichment in DNMT1-RNA precipitates compared to IgG control” value was over 60 fold.
